Measurements: EPA's ToxValDB 9.5 (doi:10.2903/j.efsa.2009.189r)

How the values were obtained:
Chrysoperla externa = test: LR50; higher = less toxic; settings: not reported; mortality
Lepomis macrochirus = settings: acute; duration: 96 hours; mortality
Canidae = settings: chronic; duration: 1 years; oral; Dog Other; organ weight
Apis mellifera = settings: acute; duration: 48 hours; oral; unspecified; mortality
Rattus norvegicus = settings: for LD50: acute, oral, mortality; for NOEL: chronic
Mus musculus = settings: acute; oral; mortality
Anas platyrhynchos = settings: acute; oral; unspecified; mortality
Tagia sp. = settings: acute; duration: 14 days; mortality
Pimephales promelas = settings: chronic/long-term; duration: 359 days; mortality
Colinus virginianus = settings: for NOEC: reproduction developmental
Folsomia candida = settings: chronic/long-term

SMILES | LR50 (Chrysoperla externa) [g/ha] | LC50 (Lepomis macrochirus) [µg/mL] | NOAEL (Canidae) [mg/kg-day] | LD50 (Apis mellifera) [µg/piece] | LD50 (Rattus norvegicus) [mg/kg-day] | NOEL (Rattus norvegicus; F) [mg/kg-day] | NOEL (Rattus norvegicus; M) [mg/kg-day] | LD50 (Mus musculus) [mg/kg-day] | LD50 (Anas platyrhynchos) [mg/kg] | LC50 (Tagia sp.) [mg/kg] | NOEC (Pimephales promelas) [mg/L] | LC50 (Colinus virginianus; acute, oral, diet, mortality) [mg/kg-day] | LD50 (Colinus virginianus; acute, oral, mortality) [mg/kg] | NOEC (Colinus virginianus) [mg/kg-day] | NOEC (Colinus virginianus; duration: 90 days) [mg/kg-day] | NOEC (Folsomia candida) [mg/kg]
O=C(NC(=O)c1c(F)cccc1F)Nc1cc(Cl)c(OC(F)(F)C(F)C(F)(F)F)cc1Cl (configuration not stated) [Lufenuron] | 0.4 | > 29 | 1.5 | > 197 | > 2000 | 10.9 | 8.3 | > 2000 | 2000 | > 1000 | 0.02 | 966 | 2000 | 19.7 | 20000 | 0.2
NC(=O)c1c(F)cccc1F [Benzamide, 2,6-difluoro-] | – | – | – | – | 2060 | – | – | – | – | – | – | – | – | – | – | –
